Results as given in patent US6696436B1, “B-homoestra-1,3,5(10)-trienes as modulators of tubulin polymerization” (The United States of America as represented by the …, priority 1999, dated 2004).
“Also recorded” adds a separate entry of the source.

How the values were obtained:
tubulin [1] = system: T1, tubulin; assay: Tubulin polymerization inhibition in vitro (turbidity at 350 nm); type: biochemical
T1 construct: other: 1.0 M glutamate, 10 μM tubulin; Effect on tubulin polymerization / microtubule assembly
Experimental: Microtubule assembly is followed in a temperature controlled recording spectrophotometer. For details and a discussion, see R. D'Amato et al., Proc Natl Acad Sci USA, 91:3964-3968 (1994).
A typical reaction mixture, which will have a final reaction volume of […], contains 1.0 M monosodium glutamate (pH 6.6), 1.0 mg/ml (10 μM) tubulin, 1.0 MM MgCl2, 4% (v/v) dimethylsulfoxide, and a compound to be tested at the desired concentration (typically 0.1 to 100 μM). The reaction mixtures are incubated for 15 min. at 37° C. and then chilled on ice. After addition of 10 μl 12.5 mM GTP (and, optionally, 0.33 mg/ml microtubule-associated proteins, or MAPs) to initiate polymerization, each reaction mixture is transferred to a cuvette at 0° C., and a baseline established. At time zero, the temperature controller of the spectrophotometer is set to a target temperature, typically between 25 and 37° C. Microtubule assembly is monitored by observing an increase in turbidity at 350 nm as the temperature of the reaction mixture rises to the set target temperature.
The results are presented in Table 1 as IC50 values (μM) for inhibition of tubulin polymerization. Alternatively, inhibition of microtubule assembly can be detected by transmission electron microscopy, as described in U.S. Pat. No. 5,504,074 which is hereby incorporated by reference in its entirety.

tubulin [2] = system: T2, tubulin; assay: Critical concentration of tubulin for assembly, turbidimetric (FIG. 6); type: biochemical; settings: for Critical concentration of tubulin, GTP-dependent, MAP-independent assembly: no MAPs
T2 construct: Activity in room temperature assay; other: no polymerization in the absence of drug; other: GTP-only system, critical concentrations
Experimental: FIG. 6 presents critical concentrations, obtained at 30° C., of tubulin with paclitaxel and compound 13. A: MAPs -and GTP-dependent assembly without drug and in the presence of 10 μM paclitaxel or 10 μM 13. B: GTP-dependent, MAP-independent assembly with 10 μM paclitaxel or 10 μM 13.
Measurement of the critical concentration with and without MAPs with paclitaxel, and again with 13, was therefore carried out to provide some idea of the comparative activity of these agents. The data are presented in FIG. 6, which yield critical concentrations, obtained at 30° C., of 1.4, 0.06, and 0.50 mg/ml for MAP-and GTP-dependent assembly without drug and in the presence of 10 μM paclitaxel or 10 μM 13, respectively, and 0.20 and 1.4 mg/ml for GTP-dependent, MAP-independent assembly with 10 μM paclitaxel or 10 μM 13. […] (A constant weight ratio of MAPs to tubulin of 1:3 was used, because the suboptimal concentration of MAPs caused greater differences in the critical concentrations obtained.) Reaction mixtures (0.25 ml) contained 0.1 M Mes (pH 6.9), 100 μM GTP, 4% dimethyl sulfoxide, the indicated tubulin concentration (with heat-treated MAPs in 1:3 weight ratio to the tubulin, panel A only), and either 10 μM paclitaxel (▴), 10 μM compound 13 (◯), or no drug (▾). Cuvette contents were equilibrated at 0°, drugs were added, temperature was jumped to 30° (about one min), and the turbidity changes after a 20 min incubation measured.

tubulin polymer [3] = assay: Inhibition of [3H]paclitaxel binding to tubulin polymer
tubulin [4] = system: T2, tubulin; assay: Enhancement of glutamate- or MAP-induced tubulin assembly, turbidimetric curves (FIGS. 4 and 5); type: biochemical
Experimental: In those cases where acceleration of tubulin polymerization is observed, an IC50 value for inhibition of polymerization is of course not derivable. Results for such compounds may be presented in the form of turbidimetric curves, e.g. as presented in FIGS. 4 and 5 for representative compounds 13 and 18.
FIG. 4: Each reaction mixture contained 0.8 M glutamate (pH 6.6), 0.4 mM GTP, 12 μM (1.2 mg/ml) tubulin, 4% (v/v) dimethyl sulfoxide, and compound 13 or 18 as indicated. Baselines were established at 0°, and at time zero the temperature controller was set at 26°. At the time indicated by the dashed line, the temperature controller was set at 0°. A. Curve 1, no drug; curve 2, 2 μM compound 13; curve 3, 5 μM 7; curve 4, 10 μM 7; curve 5, 40 μM 7; curve 6, 40 μM 14. B. Curve 1, no drug; curve 2, 2 μM compound 18; curve 3, 5 μM 18; curve 4, 10 μM 18; curve 5, 40 μM 18.
FIG. 5: Each reaction mixture contained 0.1 M Mes (pH 6.9 with NaOH in 0.5 M stock solution), 0.1 mM GTP, 10 μM (1.0 mg/ml) tubulin, 0.75 mg/ml heat-treated MAPs, 4% dimethyl sulfoxide, and drug as indicated. […] There was no change in turbidity in any reaction mixture. At this point the temperature controller was set at 10°, and subsequent temperature changes, as indicated, were made at the times indicated by the vertical dashed lines. Curve 1, no drug; curve 2, 10 μM paclitaxel; curve 3, 10 μM compound 13; curve 4, 20 μM 7; curve 5, 40 μM 7; curve 6, 10 μM compound 18.

tubulin [5] = system: T2, tubulin; assay: Polymer morphology by electron microscopy; type: biochemical
From the text: It was possible that compounds 13 and 18 were not actually acting like paclitaxel in enhancing microtubule assembly and in stabilizing the microtubules formed in the course of the turbidity studies shown in FIG. 4, but that these agents were causing formation of polymers of aberrant morphology and temperature stability different from microtubules, such as occurs with vinca alkaloids. Polymer morphology was examined by electron microscopy. […] Even more important, when the reaction mixtures were returned to 0° C. for 15 min, no microtubules were visualized on grids prepared from the reaction mixture without drug.

tubulin [6] = system: T2, tubulin; assay: Room temperature tubulin assembly assay (favorable reaction conditions, glutamate-dependent); type: biochemical; settings: no polymerization in the absence of drug
Experimental: Previous observations with paclitaxel analogs indicate that differences between compounds are magnified in restrictive reaction conditions and minimized in favorable reaction conditions. […] However, under favorable reaction conditions (room temperature) the quantitative difference between paclitaxel and sarcodictyin A was only 2.5-fold. […] The critical concentration with 10 μM sarcodictyin A under the reaction conditions shown in FIG. 6B is 1.0 mg/ml in the GTP-only system.

tubulin [7] = system: T2, tubulin; assay: Tubulin polymerization inhibition in vitro (turbidity at 350 nm); type: biochemical; set-up: key: *: Accelerates tubulin polymerization; settings: no IC50 derivable
tubulin [8] = system: T2, tubulin; assay: Enhancement of glutamate- or MAP-induced tubulin assembly, turbidimetric curves (FIGS. 4 and 5); type: biochemical; remark: listed apart in the source
tubulin polymer [9] = settings: cited from earlier work
tubulin [10] = system: T2, tubulin; settings: favorable reaction conditions (room temperature); cited from earlier work
[11] = GTP-only system, critical concentrations

SMILES	Effect on tubulin polymerization / microtubule assembly (tubulin [1])	Assembly of microtubules without MAPs (tubulin [2]; 10 μM 13, 40 μM tubulin)	Critical concentration of tubulin, MAP- and GTP-dependent assembly (tubulin [2]; 30° C., 10 μM drug, MAPs:tubulin 1:3 by weight) [mg/mL]	Critical concentration of tubulin, GTP-dependent, MAP-independent assembly (tubulin [2]; 30° C., 10 μM drug) [mg/mL]	Inhibition of [3H]paclitaxel binding to tubulin polymer (tubulin polymer [3])	Maximal inhibition of [3H]paclitaxel binding to tubulin polymer (tubulin polymer [3])	Effect on glutamate- and MAP-induced tubulin assembly (tubulin [4])	Effect on MAP-induced tubulin assembly (tubulin [4]; 0.75 mg/ml MAPs, 1.0 mg/ml tubulin, 25° C.)	Microtubules formed, seen by electron microscopy (tubulin [5])	Cold stable microtubules after return to 0° C. for 15 min (tubulin [5]; 40 μM 13 or 10 μM paclitaxel)	Activity in room temperature assay (tubulin [6])	Tubulin polymerization inhibition, symbol instead of IC50 (tubulin [7])	Tubulin assembly in the absence of GTP (tubulin [8])	Assembly reaction when either MAPs or GTP was omitted (tubulin [8]; 10 μM tubulin, 40 μM compound 13 or 10 μM paclitaxel)	Activity relative to compound 13 (% more active) (tubulin [2]; [11]) [%]	Activity relative to paclitaxel (fold less active) (tubulin [2]; [11])	Inhibition of paclitaxel binding to tubulin polymer (tubulin polymer [9])	Quantitative difference between paclitaxel and sarcodictyin A (tubulin [10]) [fold]
CCOc1cc2c(cc1OC(C)=O)C(=O)CC[C@@H]1[C@@H]2CC[C@]2(C)[C@@H](OC(C)=O)CC[C@@H]12 [Compound 13, B-Homo-3,17β-diacetoxy-2-ethoxyestra-1,3,5(10)-triene-6-one]	stimulate microtubule assembly	assembly of microtubules was observed without MAPs	0.50	1.4	only minimally inhibits	about 20%	paclitaxel-like properties	enhanced tubulin assembly; also recorded: significantly less than that of paclitaxel	abundant microtubules were formed that were indistinguishable from those formed in the absence of drug	abundant cold stable microtubules were observed	inactive	*	has not been observed; also recorded: not without GTP	no reaction occurred				
COC(=O)/C1=C/[C@@H]2[C@@H](C(C)C)CC=C(C)[C@@H]2C[C@H](OC(=O)/C=C/c2cn(C)cn2)[C@]2(C)C=C[C@@]1(O)O2 [sarcodictyin A]				1.0											40	about 5 fold	only weakly inhibits	2.5
